The record followed here is patent US20030219427A1, “TPL-2/COT kinase and methods of use” (priority 1998, published 2003).

The target in test [1] is T1, TPL-2/COT kinase (FLAG-COT (30-397)) (Homo sapiens, UniProt P41279).
T1 construct: made in house; host or cells: human 293A cells, transient transfection of a pcDNA vector, anti-FLAG immunoprecipitation
The experiment in a line: TPL-2/COT kinase assay and inhibitor screening (COT autophosphorylation and phosphorylation of GST-IκB-α). It is filed as biochemical. The conditions noted are these: for IC50: retested at 100 μM, 10 μM and 1 μM, compared to DMSO vehicle control, read-out: IC50 for TPL-2 inhibition (inhibits TPL-2 kinase activity by 50%); for inhibitory activity on COT autophosphorylation and phosphorylation of a COT target (IκB-α): initial screen at 100 μM in duplicate. On the procedure:
FLAG-tagged COT protein was expressed in 293A cells by transfection. Typically, 24 h before transfection, human 293A cells (Quantum) were plated at 2×10^6 cells per 10 cm plate. A transfection mixture was prepared comprising 60 μl Lipofectamine (Gibco) and 800 μl Optimem (Gibco) in 15 ml tube. In. a separate tube, 8 μg of DNA encoding a FLAG-tagged COT(30-397) gene in a pcDNA vector was added to 800 μl Optimem. The contents of each tube were then mixed gently with a pipette, and allowed to incubate at room temperature for 25 min. Cells were washed once with Optimem and incubated with the transfection mixture and 6.4 ml of Optimem and allowed to incubate 5 h at 37° C. and 5% CO2. Cells were then incubated with 8 ml DMEM+10% FBS+L-glutamine on day 1, DMEM+5% FBS+L-glutamine on day 2 and harvested 48 h post-transfection.
Transfected 293A cells expressing FLAG-COT (30-397) were lysed on ice for 15 min in lysis buffer (1% Triton X-100, 50 mM Tris-HCl pH 7.5, 150 mM NaCl, 1 mM EDTA, 1 mM EGTA, 20 mM NaF, 10 mM Na4P2O7, 50 mM Na3VO4 plus Complete protease inhibitors (Boehringer)) and lysates were centrifuged (14,000 rpm for 10 min at 4° C.) and supernatants were collected. Immunoprecipitations were performed using FLAG Ab gel (Sigma) at 50 μg Ab per ml of lysate for 3 h at 4° C. with mixing. Gel beads were washed at 4° C. twice with lysis buffer and then twice with wash buffer (50 mM Tris-HCl pH 7.5, 100 mM NaCl, 0.1 mM EGTA and 1 mM DTT). Gel beads were then resuspended in wash buffer and aliquoted into tubes for various kinase reactions.
A TPL-2/COT kinase assay was used to screen various candidate TPL-2/COT kinase inhibitors. The kinase assay was performed a follows. A TPL-2 kinase (i.e., FLAG-COT (30-397)) bound on gel beads was incubated with 2 μg of a target polypeptide substrate (i.e., GST IκB-α (1-50) (Boston Biologicals) in kinase buffer (50 mM Tris-HCl pH 7.5, 10 mM MgCl2, 1 mM EGTA, 2 mM DTT and 0.01% Brij 35) in the presence of an appropriate radiolabel (30 μM ATP and 5 μCi γ-^32P-ATP (Amersham)) for 10 min at 25° C. Reactions were performed in the presence or absence of candidate compounds for inhibitor activity that were prepared as 10 mM stock solutions in 100% DMSO. The test compounds were added to the kinase reaction mixture immediately before addition of […]. Reactions were stopped by the addition of 5×SDS sample buffer, heating at 100° C. for 3 min and supernatants were collected using centrifugation. The autophosphorylation of COT and phosphorylation of the target polypeptide, i.e., GST-IκB-α were analyzed by gel electrophoresis (10% SDS-PAGE) followed by transfer to nitrocellulose membranes and autoradiography. As a control to confirm equivalent levels of FLAG-COT(30-397) and GST-IκB-α proteins were used in the different kinase reactions and also equivalent gel loading, immunoblots were performed with anti-FLAG and anti-GST antibodies, respectively, on the same membranes used for autoradiography. Inhibition of COT kinase activity, either autophosphorylation activity or phosphorylation of the target polypeptide GST-IκB-α was quantitated by scanning of autoradiographs (FIG. 13). Compounds that altered the level of these activities were further analyzed as described below.
As similarly described above, a TPL-2 polypeptide expressed in insect cells was tested for kinase activity using a target polypeptide in the presence or absence of a candidate modulator compound. […]

In test [2] the test system is TPL-2-induced myc-p105 proteolysis in 3T3 cells. The experiment in a line: Pulse-chase metabolic labeling of TPL-2-induced myc-p105 proteolysis. It is filed as cell-based. As to the method:
Pulse-chase metabolic labeling is performed to determine whether TPL-2 regulates the proteolysis of myc-p105 in 3T3 fibroblasts. For pulse-chase metabolic labeling, NIH-3T3 fibroblasts are transiently transfected using LipofectAMINE (Gibco-BRL) (Huby, et al., (1997) J. Cell. Biol. 137, 1639-1649). Preparation of cytoplasmic and nuclear fractions is performed as described (Watanabe, et al., (1997)
EMBO J. 16, 3609-3620). For pulse-chase metabolic labeling, 2.7×10^5 3T3 cells per 60 mm dish (Nunc) are transfected with the indicated expression vectors. After 24 h, cells are washed and cultured in Met/Cys-free medium for 1 h. Cells are then labeled with 145 MBq of [^35S]-Met/[^35S]-Cys (Pro-Mix, Amersham-Pharmacia Biotech) per dish for 30 min and after washing, chased in complete medium for the indicated times. […] MG132 proteasome inhibitor (Biomol Research labs) is added at […] during the last 15 min of the Met/Cys starvation period and is maintain throughout the chase. Labeled bands are quantified by laser densitometry using a Molecular Dynamics Personal Densitometer. All pulse-chase experiments are performed on at least two occasions with similar results.
The effect of the peptide aldehyde MG132, a potent inhibitor of the proteasome, is determined to investigate whether myc-p105 proteolysis induced by TPL-2 is mediated by the proteasome. […]

A further test concerns the target T2, HA-p105(369-969) (Homo sapiens (Human), UniProt P19838 368-968).
T2 construct: also called p105?N
T2 sequence: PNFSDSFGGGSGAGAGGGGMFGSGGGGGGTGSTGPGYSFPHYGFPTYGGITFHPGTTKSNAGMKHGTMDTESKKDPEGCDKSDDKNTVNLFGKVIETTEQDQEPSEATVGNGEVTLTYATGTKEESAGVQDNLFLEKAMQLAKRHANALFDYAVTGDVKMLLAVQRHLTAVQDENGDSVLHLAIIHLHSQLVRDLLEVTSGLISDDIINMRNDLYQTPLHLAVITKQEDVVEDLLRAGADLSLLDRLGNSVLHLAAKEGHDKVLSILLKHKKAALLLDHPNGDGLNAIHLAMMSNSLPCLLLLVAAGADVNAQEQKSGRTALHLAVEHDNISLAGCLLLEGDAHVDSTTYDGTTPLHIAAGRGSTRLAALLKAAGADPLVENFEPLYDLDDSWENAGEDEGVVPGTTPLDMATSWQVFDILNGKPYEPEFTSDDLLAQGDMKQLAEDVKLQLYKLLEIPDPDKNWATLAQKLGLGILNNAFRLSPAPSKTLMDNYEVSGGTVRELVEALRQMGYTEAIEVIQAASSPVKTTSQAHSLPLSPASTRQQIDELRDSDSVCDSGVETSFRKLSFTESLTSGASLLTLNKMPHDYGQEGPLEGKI
The experiment in a line: co-expression in Sf9 cells, purification of the complex from lysates.

For the next test, the target named is Myc-TPL-2ΔC (Homo sapiens (Human), UniProt P41279 1-397). Briefly: cell-based or functional assay.

Entries after “also recorded” stand apart in the source; their conditions may differ. Peptide text beside a SMILES is read from it. * marks the point of attachment. Cbz = O=C(OCc1ccccc1)* Bounds are passed on as bounds.

On to `c1ccc(Oc2ccc3nccc(Nc4ccc(Sc5ccccc5)cc4)c3c2)cc1` [N-(6-phenoxy-4-quinolyl)-N-[4-(phenylsulfanyl)phenyl]amine], for which, in test [1], the IC50 – broadly, the concentration needed to halve the response being measured – turned out to be 50 µM. For `CCOC(=O)c1cnc2c(c1Nc1ccc(Sc3ccccc3)cc1)C(=O)CCC2` [ethyl 5-oxo-4-[4-(phenylsulfanyl)anilino]-5,6,7,8-tetrahydro-3-quinolinecarboxylate], the IC50 in test [1] was determined as 10 µM. For `C[S+]([O-])c1ccc(-c2nc(-c3ccncc3)c(-c3ccc(F)cc3)[nH]2)cc1` (stereo not shown) [SB 203580], the “inhibitory activity on COT autophosphorylation and phosphorylation of a COT target (IκB-α)” value (from here on “inhibitory activity”) in test [1] was “little or no inhibitory activity”.

`CC(C)C[C@@H](C=O)NC(=O)[C@H](CC(C)C)NC(=O)[C@H](CC(C)C)NC(=O)OCc1ccccc1` [MG132] (Cbz-Leu-Leu-Leu-aldehyde): in test [2] (3T3 cells co-transfected with myc-p105 and TPL-2, drug maintained throughout chase), the “effect on TPL-2-induced increased turnover (proteolysis) of myc-p105” value is given as “blocks increased turnover of myc-p105”. For the same molecule, the “effect on production of myc-p50” value in test [2] (TPL-2 co-expressing 3T3 cells, during the chase) is reported as “completely prevents production of myc-p50; also recorded: completely blocked the production of myc-p50”.

Consider `CN[C@@H]1C[C@H]2O[C@@](C)([C@@H]1OC)n1c3ccccc3c3c4c(c5c6ccccc6n2c5c31)C(=O)NC4` [staurosporine], for which the “inhibitory activity” value in test [1] is given as “little or no inhibitory activity”.

On to `COc1cccc(-c2cc(=O)c3ccccc3o2)c1N` [PD98059], for which, in test [1], the “inhibitory activity” value is on record as “little or no inhibitory activity”.

B1: Flag-COT(30-397) (enzyme, not shown: small tags and cut ends)
chain: MENLYASEEPAVYEPSLMTMCQDSNQNDERSKSLLLSGQEVPWLSSVRYGTVEDLLAFANHISNTAKHFYGQRPQESGILLNMVITPQNGRYQIDSDVLLIPWKLTYRNIGSDFIPRGAFGKVYLAQDIKTKKRMACKLIPVDQFKPSDVEIQACFRHENIAELYGAVLWGETVHLFMEAGEGGSVLEKLESCGPMREFEIIWVTKHVLKGLDFLHSKKVIHHDIKPSNIVFMSTKAVLVDFGLSVQMTEDVYFPKDLRGTEIYMSPEVILCRGHSTKADIYSLGATLIHMQTGTPPWVKRYPRSAYPSYLYIIHKQAPPLEDIADDCSPGMRELIEASLERNPNHRPRAADLLKHEALNPPREDQPR
Consider B1, for which, in the test with HA-p105(369-969), the binding result is on record as “binds”.

B2: Flag-COT(30-467) (enzyme, not shown: small tags and cut ends)
chain: MENLYASEEPAVYEPSLMTMCQDSNQNDERSKSLLLSGQEVPWLSSVRYGTVEDLLAFANHISNTAKHFYGQRPQESGILLNMVITPQNGRYQIDSDVLLIPWKLTYRNIGSDFIPRGAFGKVYLAQDIKTKKRMACKLIPVDQFKPSDVEIQACFRHENIAELYGAVLWGETVHLFMEAGEGGSVLEKLESCGPMREFEIIWVTKHVLKGLDFLHSKKVIHHDIKPSNIVFMSTKAVLVDFGLSVQMTEDVYFPKDLRGTEIYMSPEVILCRGHSTKADIYSLGATLIHMQTGTPPWVKRYPRSAYPSYLYIIHKQAPPLEDIADDCSPGMRELIEASLERNPNHRPRAADLLKHEALNPPREDQPRCTSLDSALLERKRLLSRKELELPENIADSSCTGSTEESEMLKRQRSLYIDLGALAGYFNLVRGPPTLEYG
As to B2, the binding result with HA-p105(369-969) is listed as “binds”.

B3: HA-p105 (other, not shown: small tags and cut ends)
chain: MAEDDPYLGRPEQMFHLDPSLTHTIFNPEVFQPQMALPTADGPYLQILEQPKQRGFRFRYVCEGPSHGGLPGASSEKNKKSYPQVKICNYVGPAKVIVQLVTNGKNIHLHAHSLVGKHCEDGICTVTAGPKDMVVGFANLGILHVTKKKVFETLEARMTEACIRGYNPGLLVHPDLAYLQAEGGGDRQLGDREKELIRQAALQQTKEMDLSVVRLMFTAFLPDSTGSFTRRLEPVVSDAIYDSKAPNASNLKIVRMDRTAGCVTGGEEIYLLCDKVQKDDIQIRFYEEEENGGVWEGFGDFSPTDVHRQFAIVFKTPKYKDINITKPASVFVQLRRKSDLETSEPKPFLYYPEIKDKEEVQRKRQKLMPNFSDSFGGGSGAGAGGGGMFGSGGGGGGTGSTGPGYSFPHYGFPTYGGITFHPGTTKSNAGMKHGTMDTESKKDPEGCDKSDDKNTVNLFGKVIETTEQDQEPSEATVGNGEVTLTYATGTKEESAGVQDNLFLEKAMQLAKRHANALFDYAVTGDVKMLLAVQRHLTAVQDENGDSVLHLAIIHLHSQLVRDLLEVTSGLISDDIINMRNDLYQTPLHLAVITKQEDVVEDLLRAGADLSLLDRLGNSVLHLAAKEGHDKVLSILLKHKKAALLLDHPNGDGLNAIHLAMMSNSLPCLLLLVAAGADVNAQEQKSGRTALHLAVEHDNISLAGCLLLEGDAHVDSTTYDGTTPLHIAAGRGSTRLAALLKAAGADPLVENFEPLYDLDDSWENAGEDEGVVPGTTPLDMATSWQVFDILNGKPYEPEFTSDDLLAQGDMKQLAEDVKLQLYKLLEIPDPDKNWATLAQKLGLGILNNAFRLSPAPSKTLMDNYEVSGGTVRELVEALRQMGYTEAIEVIQAASSPVKTTSQAHSLPLSPASTRQQIDELRDSDSVCDSGVETSFRKLSFTESLTSGASLLTLNKMPHDYGQEGPLEGKI
With B3, the “MEK kinase activity of TPL-2ΔC relative to wild type TPL-2 in cells expressing p105” value with Myc-TPL-2ΔC is more than 40 fold.
